Results published in ChEMBL document CHEMBL4665774, “Design, synthesis and biological evaluation of triaryl compounds as novel 20S proteasome inhibitors” (Bioorg Med Chem Lett, 2020).
pIC50: −log10 of the molar value.

Tests used:
[1] = target: T1, Proteasome Macropain subunit MB1 (Homo sapiens, UniProt P28074); assay: Inhibition of human 20S proteasome beta 5
T1 sequence (P28074 whole entry): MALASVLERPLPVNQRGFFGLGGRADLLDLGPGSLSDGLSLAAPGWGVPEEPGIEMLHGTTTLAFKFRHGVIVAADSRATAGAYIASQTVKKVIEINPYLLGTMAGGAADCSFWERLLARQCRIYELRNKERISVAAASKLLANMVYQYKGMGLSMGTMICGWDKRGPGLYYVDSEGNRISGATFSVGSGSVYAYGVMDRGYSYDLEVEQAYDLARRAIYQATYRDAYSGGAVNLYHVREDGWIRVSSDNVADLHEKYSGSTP

MDA-MB-468 = assay: Antiproliferative activity against human MDA-MB-468 cells assessed as reduction in cell viability by SRB assay
[2] = target: T2, Proteasome Macropain subunit MB1 (Homo sapiens) (UniProt P28074); assay: Inhibition of human 20S proteasome beta 5 at 10 uM relative to control
T2 sequence (whole entry): T1 sequence (P28074 whole entry)

Homo sapiens = species: Homo sapiens; assay: Inhibition of human 20S proteasome beta 5i subunit at 10 microM relative to control

pIC50 [1] | pIC50 (MDA-MB-468) | inhibition [2] | SMILES | also measured
6.41 | < 4.40 |  | CC(C)N(Cc1nc(-c2cccs2)no1)C(=O)c1cc2ccccc2o1 | 
 |  | < 30% | CC(C)N(Cc1nc(-c2ccco2)no1)C(=O)c1cnc2ccccc2n1 | 
 |  | < 30% | CC(C)N(Cc1cncc(-c2cccnc2)c1)C(=O)c1cc2ccccc2o1 | 
 |  | < 30% | CC(C)N(Cc1nc(-c2ccc3ccccc3c2)no1)C(=O)c1cc2ccccc2o1 | 
 |  | < 30% | CC(C)N(Cc1cccc(-c2cncnc2)c1)C(=O)c1cc2ccccc2o1 | 
5.97 | 4.71 |  | CCCc1ccc(OCC(=O)N(Cc2cccc(-c3cccnc3)c2)C(C)C)cc1 | 
5.86 | < 4.40 |  | CC(C)N(Cc1ccc(-c2cccnc2)cc1)C(=O)COc1ccc(Oc2ccccc2)cc1 | 
6.06 | 4.46 |  | CCCc1ccc(OCC(=O)N(Cc2nc(-c3ccc4ccccc4n3)no2)C(C)C)cc1 | 
4.33 |  |  | CC(C)N(Cc1cccc(-c2ccco2)c1)C(=O)c1cc2ccccc2o1 | 
4.21 |  |  | CC(C)N(Cc1cccc(-c2ccco2)c1)C(=O)c1ccc2ccccc2n1 | 
 |  | < 30% | CC(C)N(Cc1ccc(-c2cccs2)cc1)C(=O)COc1ccc(Oc2ccccc2)cc1 | 
 |  | < 30% | CC(C)N(Cc1nc(-c2ccco2)no1)C(=O)c1ccc2ccccc2n1 | 
 |  | < 30% | CC(C)N(Cc1cccc(-c2cccs2)c1)C(=O)c1cc2ccccc2o1 | 
4.69 |  |  | CC(C)N(Cc1cccc(-c2cccnc2)c1)C(=O)c1cc2ccccc2o1 | 
5.64 | 4.52 |  | CCCc1ccc(OCC(=O)N(Cc2cccc(-c3cncnc3)c2)C(C)C)cc1 | 
 | 5.12 |  | CCCc1ccc(OCC(=O)N(Cc2nc(-c3cccnc3)no2)C(C)C)cc1 | 

pIC50 [1] | pIC50 (MDA-MB-468) | inhibition [2] | SMILES | also measured
4.47 |  |  | CCCc1ccc(OCC(=O)N(Cc2ccc(-c3cccs3)cc2)C(C)C)cc1 | 
5.94 |  |  | CCCc1ccc(OCC(=O)N(Cc2ccc(-c3cccnc3)cc2)C(C)C)cc1 | 
 |  | < 30% | CC(C)N(Cc1cncc(-c2cncnc2)c1)C(=O)c1cc2ccccc2o1 | 
4.97 |  |  | CCCc1ccc(OCC(=O)N(Cc2cccc(-c3ccco3)c2)C(C)C)cc1 | 
 |  | < 30% | CCCc1ccc(OCC(=O)N(Cc2cncc(-c3cncnc3)c2)C(C)C)cc1 | 
5.02 |  |  | CCCc1ccc(OCC(=O)N(Cc2cccc(-c3cccs3)c2)C(C)C)cc1 | 
5.79 | 5.17 |  | CC(C)N(Cc1nc(-c2cccnc2)no1)C(=O)COc1ccc(Oc2ccccc2)cc1 | 
5.47 | 4.50 |  | CC(C)N(Cc1cccc(-c2cccs2)c1)C(=O)c1ccc2ccccc2n1 | 
6.74 | 4.57 |  | CCCc1ccc(OCC(=O)N(Cc2nc(-c3cccs3)no2)C(C)C)cc1 | inhibition (Homo sapiens): 25.3%
5.37 |  |  | CCCc1ccc(OCC(=O)N(Cc2nc(-c3ccc4ccccc4c3)no2)C(C)C)cc1 | 
 |  | < 30% | CC(C)N(Cc1nc(-c2ccc3ccccc3n2)no1)C(=O)c1cc2ccccc2o1 | 
6.92 | 4.41 |  | CCCc1ccc(OCC(=O)N(Cc2nc(-c3ccco3)no2)C(C)C)cc1 | inhibition (Homo sapiens): 7.3%
4.83 |  |  | CC(C)N(Cc1nc(-c2ccco2)no1)C(=O)COc1ccc(Oc2ccccc2)cc1 | 
 |  | < 30% | CCCc1ccc(OCC(=O)N(Cc2cncc(-c3cccnc3)c2)C(C)C)cc1 | 
6.21 | < 4.40 |  | CC(C)N(Cc1nc(-c2ccco2)no1)C(=O)c1cc2ccccc2o1 | 
